Data on 1 molecule can be found in patent US20240116875A1, “RATIONAL DESIGN, OPTIMIZATION, AND BIOLOGICAL EVALUATION OF NOVEL MEK4 INHIBITORS AGAINST PANCREATIC ADENOCARCINOMA” (NORTHWESTERN UNIVERSITY, priority 2022, published 2024).

“Also recorded” adds a separate entry of the source.

One series deals with 97 kinases. The experiment in a line: scanEDGE DiscoverX kinome-wide scan. The note with it: 10 μM. Type of series: binding. From the text: (§1) To compare our compounds to the rest of the MEK inhibitors discovered thus far, we turned to the DiscoverX platform (KINOMEscan®, Eurofins DiscoverX), a widely used assay for comparing selectivity across the kinome. The DiscoverX platform reports the thermodynamic Kd in order to facilitate direct comparison of inhibitor affinity across the kinome, independent of ATP concentration.

For another series, the target named is T1, BRAF (Homo sapiens, UniProt P15056).
T1 construct: purchased Eurofins DiscoverX scanEDGE
In words: scanEDGE DiscoverX kinome-wide scan, BRAF. Type of series: binding. The note with it: 10 μM.
Text: as §1

The next series has as its system JNK1/2/3. The experiment in a line: scanEDGE DiscoverX kinome-wide scan, JNK1/2/3. Conditions: 10 μM. Type of series: binding.
Text: as §1

In series [1] the test system is JNK phosphorylation in HEK293T cells. In words: anisomycin-induced JNK phosphorylation, western blotting, HEK293T. The series is classed as cell-based, human. Conditions: anisomycin 45 minutes then compound 5 hours, increasing doses. On the procedure:
The blots are representative of at least three biological replicates.
(§2) We also examined the effects of these inhibitors on JNK phosphorylation and proliferation of two pancreatic cancer cell lines (CD18 and MiaPaCa2).
(§3) Human pancreatic cancer cell lines (CD18/HPAF-II and MiaPaCa2) and HEK293T cells were obtained from American Type Culture Collection. All cell lines were cultured according to the manufacturer's protocol. All media contained 10% Fetal Bovine Serum (FBS) and antibiotics (100 U/mL Penicillin and 100 μg/mL Streptomycin).
(§4) Whole cell extracts of cultured cells were prepared in radioimmunoprecipitation (RIPA) lysis buffer supplemented with phosphatase and protease inhibitors (Calbiochem). Protein concentration was determined by the bicinchoninic acid assay (BCA) (ThermoFisher) and separated by the SDS-PAGE technique. […] Secondary anti-mouse IgG (A4416) and anti-rabbit IgG (A6667) antibodies were purchased from Sigma-Aldrich and used a 1:4000 dilution. Images of blots were acquired on HyBlot ES Autoradiography Film (Thomas Scientific, Swedesboro, NJ, USA) following incubation with SuperSignal West Pico PLUS (ThermoFisher).

Series [2] deals with JNK phosphorylation in CD18 cells. In words: anisomycin-induced JNK phosphorylation, western blotting, CD18. Type of series: cell-based, human. The note with it: CD18, anisomycin 45 minutes then compound 5 hours. How it is done:
(§5) HSP90 was used as loading control. The blots are representative of at least three biological replicates.
as §2, §3, §4

The test system of series [3] is JNK phosphorylation in MiaPaCa2 cells. In words: anisomycin-induced JNK phosphorylation, western blotting, MiaPaCa2. The series is classed as cell-based, human. Conditions: MiaPaCa2, anisomycin 45 minutes then compound 5 hours. On the procedure: as §5, §2, §3, §4
For orientation: In western blotting, separated proteins are transferred to a membrane and probed.

Another series concerns CD18 cells. The experiment in a line: cell proliferation (cell count after 72 hours), CD18. Conditions: CD18, 72 hours, varying doses, single agent. The series is classed as cell-based, human. How it is done: (§6) After 72 hours, cells were trypsinized, counted, and the cell numbers were normalized against the DMSO treatment. Mean±SD. Graphs are representative of 3 biological replicates.
as §6
Cell numbers from different treatments were normalized against the DMSO treatment, and CDI is calculated as follows: CDI=AB/(A×B), with AB being the ratio of the combination groups to control group and A or B being the ratio of the single agent group to the DMSO group. Mean±SEM from 3 biological replicates.
as §2, §3

Series [4] concerns MEK7 expression in HEK293T cells. The experiment in a line: MEK7 expression, western blotting, HEK293T. The note with it: anisomycin pretreatment, compound 100 μM, 5 hours. The series is classed as cell-based, human. How it is done:
as §5
We next evaluated the effects of our inhibitors on the phosphorylation activity and expression of MEK1/2, MEK3/6, and MEK7. […] We also evaluated the effects on p42/44 MAPK (ERK1/2), which functions downstream of MEK1/2.
as §4

In series [5] the test system is phospho-p42/44 MAPK in CD18 cells. The experiment in a line: p42/44 MAPK phosphorylation, western blotting, CD18. Type of series: cell-based, human. The note with it: CD18, MEK4 inhibitor 10 μM, 5 hours. On the procedure:
The effects of different treatments on phospho-p42/44 MAPK and total p42/44 MAPK expression levels were determined by western blotting. HSP90 was used as loading control. The blots are representative of at least three biological replicates.
as §4

For another series, the target named is CYP 2D6 (Homo sapiens, UniProt P10635). In words: CYP inhibition, 2D6.
The test system of the next series is CYP isoforms 3A4/5. The experiment in a line: CYP inhibition, 3A4/5.

CYP 2D6, sequence (P10635 whole entry, canonical isoform): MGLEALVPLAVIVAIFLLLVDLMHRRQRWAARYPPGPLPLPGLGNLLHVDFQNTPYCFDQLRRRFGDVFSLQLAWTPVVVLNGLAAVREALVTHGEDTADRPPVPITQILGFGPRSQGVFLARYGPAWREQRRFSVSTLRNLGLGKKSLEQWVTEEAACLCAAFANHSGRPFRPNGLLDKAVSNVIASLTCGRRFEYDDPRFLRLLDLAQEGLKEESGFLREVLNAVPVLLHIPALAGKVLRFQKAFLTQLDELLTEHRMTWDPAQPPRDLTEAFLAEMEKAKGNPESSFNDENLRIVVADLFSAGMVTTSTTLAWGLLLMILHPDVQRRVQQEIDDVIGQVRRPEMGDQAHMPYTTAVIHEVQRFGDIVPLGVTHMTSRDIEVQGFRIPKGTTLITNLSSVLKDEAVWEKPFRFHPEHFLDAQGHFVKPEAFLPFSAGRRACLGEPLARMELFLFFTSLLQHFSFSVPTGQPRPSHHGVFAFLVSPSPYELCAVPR
T1 sequence (P15056 whole entry): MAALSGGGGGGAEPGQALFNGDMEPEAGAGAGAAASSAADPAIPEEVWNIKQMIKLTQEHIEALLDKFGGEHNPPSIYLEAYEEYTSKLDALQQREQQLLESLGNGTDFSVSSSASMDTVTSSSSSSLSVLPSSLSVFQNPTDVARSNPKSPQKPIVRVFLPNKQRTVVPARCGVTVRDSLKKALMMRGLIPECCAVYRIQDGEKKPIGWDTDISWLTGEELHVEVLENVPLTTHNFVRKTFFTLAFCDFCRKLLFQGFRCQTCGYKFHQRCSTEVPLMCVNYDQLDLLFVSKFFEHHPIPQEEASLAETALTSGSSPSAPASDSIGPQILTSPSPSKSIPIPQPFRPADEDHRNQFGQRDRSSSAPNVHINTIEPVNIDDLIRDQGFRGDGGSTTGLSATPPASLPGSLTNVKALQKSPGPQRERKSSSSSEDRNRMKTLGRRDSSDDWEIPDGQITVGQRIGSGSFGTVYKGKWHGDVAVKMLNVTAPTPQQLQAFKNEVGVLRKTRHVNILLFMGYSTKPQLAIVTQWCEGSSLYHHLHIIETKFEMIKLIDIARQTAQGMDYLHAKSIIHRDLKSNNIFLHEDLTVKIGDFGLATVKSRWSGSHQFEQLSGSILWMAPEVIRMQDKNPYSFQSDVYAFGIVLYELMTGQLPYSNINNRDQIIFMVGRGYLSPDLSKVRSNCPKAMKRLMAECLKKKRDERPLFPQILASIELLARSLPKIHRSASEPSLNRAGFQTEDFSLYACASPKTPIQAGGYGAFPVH

Turning to `NC(=O)c1ccc(NS(=O)(=O)c2cccc(-c3n[nH]c4cc(F)ccc34)c2)cc1` [Compound 15o, 4-((3-(6-fluoro-1H-indazol-3-yl)phenyl)sulfonamido)benzamide], the “number of kinases hit at 80% or higher inhibition, out of 97 kinases” value in the series on 97 kinases is on record as 28. In addition, the “inhibition of BRAF” value at BRAF is listed as “did not inhibit”. In addition, the “inhibition of JNK1/2/3” value in the series on JNK1/2/3 is “did inhibit”. In addition, the “effect on anisomycin-induced JNK phosphorylation” value in [1] was “attenuated anisomycin-induced INK phosphorylation in a dose-dependent manner”; in series [2] it was “attenuated anisomycin-induced JNK phosphorylation”; in series [3] it was “attenuated anisomycin-induced JNK phosphorylation”. For the same molecule, in the series with CD18 cells, the cell proliferation result is on record as “decreased proliferation; also recorded: antiproliferative properties”. Also, the “effect on the expression of MEK7” value in [4] is reported as “no effect”. Further, the “effect on p42/44 MAPK phosphorylation” value in [5] was “increased p42/44 MAPK phosphorylation”. Further, the “inhibition of CYP 2D6” value against CYP 2D6 was “low inhibition”. In addition, in the series with CYP isoforms 3A4/5, the “inhibition of CYP isoforms 3A4/5” value is on record as “did not inhibit”.
